# Values quoted from earlier work, collected in patent publication US20130039995A1, “DERMATOLOGICAL COMPOSITIONS COMPRISING AT LEAST ONE REINOID COMPOUND, AN ANTI-IRRITANT COMPOUND AND BENZOYL PEROXIDE” (Galderma Research & Development, priority 2007, published 2013).
structure (smiles),measurement,setting,value
O=C(OOC(=O)c1ccccc1)c1ccccc1 [benzoyl peroxide],degradation of benzoyl peroxide in solution,"in solution in ethanol, propylene glycol and mixtures of PEG 400 and water, depends on type of solvent and its concentration",degrades more or less rapidly
same,degradation of benzoyl peroxide in suspension on storage,"in suspension (disperse form) in water and in propylene glycol, after 90 days of storage",not degraded
